Test results from paper PMC9516332 (Frontiers in Oncology, 2022).

How the values were obtained:
Experiment in all cases: Kinase panel profiling at 1 µmol/L (MSA or IMAP), percentage inhibition
Type in all cases: biochemical
[1] = biological target: panel of 255 wild-type kinases (Homo sapiens, UniProt P17612); details: kinase PKACα; 1 µmol/L single concentration; read-out: %-inhibition at 1 µmol/L, PKACα
[2] = biological target: panel of 255 wild-type kinases (Homo sapiens, UniProt Q05655); details: kinase PKCδ; 1 µmol/L single concentration; read-out: %-inhibition at 1 µmol/L, PKCδ
[3] = biological target: panel of 255 wild-type kinases (Homo sapiens, UniProt Q9P289); details: MST4; 1 µmol/L single concentration; read-out: %-inhibition, MST4
[4] = biological target: panel of 255 wild-type kinases (Homo sapiens, UniProt Q06187); details: BTK kinase assay; 1 µmol/L single concentration; read-out: %-inhibition BTK
[5] = biological target: panel of 255 wild-type kinases (Homo sapiens, UniProt P17948); details: kinase FLT1; 1 µmol/L single concentration; read-out: %-inhibition at 1 µmol/L, FLT1
[6] = biological target: panel of 255 wild-type kinases (Homo sapiens, UniProt P04629); details: kinase TRKA; 1 µmol/L single concentration; read-out: %-inhibition at 1 µmol/L, TRKA
[7] = biological target: panel of 255 wild-type kinases (Homo sapiens, UniProt Q8TDX7); details: NEK7; 1 µmol/L single concentration; read-out: %-inhibition, NEK7
[8] = biological target: panel of 255 wild-type kinases (Homo sapiens, UniProt P54756); details: kinase EPHA5; 1 µmol/L single concentration; read-out: %-inhibition at 1 µmol/L, EPHA5
[9] = biological target: panel of 255 wild-type kinases (Homo sapiens, UniProt O96017); details: CHK2 kinase assay; 1 µmol/L single concentration; read-out: %-inhibition CHK2
[10] = biological target: panel of 255 wild-type kinases (Homo sapiens, UniProt Q00526); details: CDK3/CycE1 kinase assay; 1 µmol/L single concentration; read-out: %-inhibition CDK3/CycE1
[11] = biological target: panel of 255 wild-type kinases (Homo sapiens, UniProt Q04759); details: kinase PKCθ; 1 µmol/L single concentration; read-out: %-inhibition at 1 µmol/L, PKCθ
[12] = biological target: panel of 255 wild-type kinases (Homo sapiens, UniProt Q7KZI7); details: MARK2; 1 µmol/L single concentration; read-out: %-inhibition, MARK2
[13] = biological target: panel of 255 wild-type kinases (Homo sapiens, UniProt Q15119); details: kinase PDHK2; 1 µmol/L single concentration; read-out: %-inhibition at 1 µmol/L, PDHK2
[14] = biological target: panel of 255 wild-type kinases (Homo sapiens, UniProt P19784); details: kinase CK2α2/β; 1 µmol/L single concentration; read-out: %-inhibition at 1 µmol/L, CK2α2/β
[15] = biological target: panel of 255 wild-type kinases (Homo sapiens, UniProt O60674); details: kinase JAK2; 1 µmol/L single concentration; read-out: %-inhibition at 1 µmol/L, JAK2
[16] = biological target: T1, panel of 255 wild-type kinases (Homo sapiens, UniProt Q8TDC3); details: BRSK1 kinase assay; 1 µmol/L single concentration; read-out: %-inhibition BRSK1
T1 sequence (Q8TDC3 1-778): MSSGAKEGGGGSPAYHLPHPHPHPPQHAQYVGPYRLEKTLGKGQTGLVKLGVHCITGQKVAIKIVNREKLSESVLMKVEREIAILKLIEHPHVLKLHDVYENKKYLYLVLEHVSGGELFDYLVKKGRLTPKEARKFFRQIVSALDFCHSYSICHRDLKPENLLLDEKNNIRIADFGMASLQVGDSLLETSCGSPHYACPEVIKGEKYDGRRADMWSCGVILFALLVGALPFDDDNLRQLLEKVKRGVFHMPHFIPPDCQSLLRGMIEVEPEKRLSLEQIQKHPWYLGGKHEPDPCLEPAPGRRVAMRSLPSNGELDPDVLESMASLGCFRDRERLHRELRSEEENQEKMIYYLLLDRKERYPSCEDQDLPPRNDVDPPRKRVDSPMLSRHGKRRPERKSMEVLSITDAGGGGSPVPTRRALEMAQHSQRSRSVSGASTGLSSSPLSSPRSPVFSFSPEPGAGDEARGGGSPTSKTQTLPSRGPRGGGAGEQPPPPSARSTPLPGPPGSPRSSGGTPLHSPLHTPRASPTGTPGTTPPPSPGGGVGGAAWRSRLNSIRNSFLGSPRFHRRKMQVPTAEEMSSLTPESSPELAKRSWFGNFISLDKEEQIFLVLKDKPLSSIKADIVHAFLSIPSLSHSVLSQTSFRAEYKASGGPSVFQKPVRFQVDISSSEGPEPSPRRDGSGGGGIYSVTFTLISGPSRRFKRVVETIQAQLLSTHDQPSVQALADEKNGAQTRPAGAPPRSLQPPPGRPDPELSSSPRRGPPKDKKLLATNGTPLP

| SMILES | inhibition at 1 µM [1] [%] | inhibition at 1 µM [2] [%] | inhibition at 1 µM [3] [%] | inhibition at 1 µM [4] [%] | inhibition at 1 µM [5] [%] | inhibition at 1 µM [6] [%] | inhibition at 1 µM [7] [%] | inhibition at 1 µM [8] [%] | inhibition at 1 µM [9] [%] | inhibition at 1 µM [10] [%] | inhibition at 1 µM [11] [%] | inhibition at 1 µM [12] [%] | inhibition at 1 µM [13] [%] | inhibition at 1 µM [14] [%] | inhibition at 1 µM [15] [%] | inhibition at 1 µM [16] [%] |
| --- | --- | --- | --- | --- | --- | --- | --- | --- | --- | --- | --- | --- | --- | --- | --- | --- |
| C[C@H](Nc1ncnc2nc[nH]c12)c1cc2cccc(Cl)c2c(=O)n1-c1ccccc1 [duvelisib] | -7.56 | 1.67 | -3.25 | 1.85 | 7.43 | 9 | -0.791 | 0.787 | -3.49 | -0.613 | 1.09 | -2.13 | 3.57 | -1.47 | 3.29 | 0.274 |
| Cc1cc(Nc2ncnc3ccc(NC4=NC(C)(C)CO4)cc23)ccc1Oc1ccn2ncnc2c1 [tucatinib] | -20 | 2.67 | 3 | 21 | 3.22 | 20 | -5.58 | -13 | 4 | -3.48 | 0.763 | -12 | -2 | -2.25 | 4.51 | 0.339 |
| COC(=O)N[C@@H](C)CNc1nccc(-c2cn(C(C)C)nc2-c2cc(Cl)cc(NS(C)(=O)=O)c2F)n1 [encorafenib] | -10 | -2.67 | -4.45 | -1.36 | 17 | -2.7 | 5 | -2.32 | 7 | -2 | 2 | 5.68 | -2 | -3.75 | 2.62 | 1.38 |

Second part, the molecule after the results:

| inhibition at 1 µM [1] [%] | inhibition at 1 µM [2] [%] | inhibition at 1 µM [3] [%] | inhibition at 1 µM [4] [%] | inhibition at 1 µM [5] [%] | inhibition at 1 µM [6] [%] | inhibition at 1 µM [7] [%] | inhibition at 1 µM [8] [%] | inhibition at 1 µM [9] [%] | inhibition at 1 µM [10] [%] | inhibition at 1 µM [11] [%] | inhibition at 1 µM [12] [%] | inhibition at 1 µM [13] [%] | inhibition at 1 µM [14] [%] | inhibition at 1 µM [15] [%] | inhibition at 1 µM [16] [%] | SMILES |
| --- | --- | --- | --- | --- | --- | --- | --- | --- | --- | --- | --- | --- | --- | --- | --- | --- |
| 16 | -3 | -1.47 | 53 | 96 | 96 | -3 | 74 | 10 | 42 | -0.598 | -15 | 1.11 | 4.29 | 98 | 12 | CO[C@]1(C(=O)N[C@@H](C)c2ccc(-n3cc(F)cn3)nc2)CC[C@H](c2nc(C)cc(Nc3cc(C)[nH]n3)n2)CC1 [pralsetinib] |
| -12 | -9 | 0.492 | -3.75 | 10 | -5 | 2 | -2.36 | 4.21 | -4.57 | -2.27 | -6 | -1.13 | -1.89 | -0.409 | -0.585 | Cn1cnc2c(F)c(Nc3ccc(Br)cc3F)c(C(=O)NOCCO)cc21 [binimetinib] |
| -13 | -7.56 | -12 | -0.621 | 3 | 6.61 | 0.399 | 0.272 | -1.14 | -4 | -0.212 | -0.36 | 0.0902 | -1.53 | 1.85 | 12 | Cc1nc(NC(=O)N2CCC[C@H]2C(N)=O)sc1-c1ccnc(C(C)(C)C(F)(F)F)c1 [alpelisib] |
